Tests used:
[1] = biological target: T1, SHP2 (Avi-G4SG4S-PTPN11(1-525)) (Homo sapiens, UniProt Q06124); assay: Binding kinetic assay by surface plasmon resonance (SPR); conditions: Biacore T200, single cycle kinetic, 1:1 Langmuir binding model; for koff: triplicate
T1 construct: (Avi-G4SG4S-PTPN11(1-525)); purchased Viva Biotech Ltd
T1 sequence (Q06124 1-525): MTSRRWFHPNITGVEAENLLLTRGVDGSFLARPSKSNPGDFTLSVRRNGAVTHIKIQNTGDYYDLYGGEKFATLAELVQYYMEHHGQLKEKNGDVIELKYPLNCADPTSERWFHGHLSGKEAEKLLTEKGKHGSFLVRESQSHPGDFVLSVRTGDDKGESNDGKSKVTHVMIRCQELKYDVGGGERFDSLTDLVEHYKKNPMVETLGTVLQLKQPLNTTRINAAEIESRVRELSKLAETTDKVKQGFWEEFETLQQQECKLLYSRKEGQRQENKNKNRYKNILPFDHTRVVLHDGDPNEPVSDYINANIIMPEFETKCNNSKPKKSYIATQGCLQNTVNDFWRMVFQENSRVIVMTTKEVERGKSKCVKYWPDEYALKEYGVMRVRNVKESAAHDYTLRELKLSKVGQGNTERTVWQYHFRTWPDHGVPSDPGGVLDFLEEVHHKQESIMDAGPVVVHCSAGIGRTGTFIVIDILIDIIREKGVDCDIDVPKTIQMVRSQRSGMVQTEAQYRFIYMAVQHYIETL
Description: A binding assay for measuring SHP2 inhibitors binding kinetic was developed using a Biacore T200 Instrument (Cytiva, Sweden). […] Data analysis was performed by Biacore T200 Evaluation software (Cytiva), and kinetic parameters were evaluated by a global fitting according to a 1:1 Langmuir binding model. Each molecule was tested in triplicate on separate flow channels.

[2] = biological target: T2, SHP-2 enzyme (Met1-Leu525) (Homo sapiens, UniProt Q06124); assay: SHP2 inhibition enzymatic assay (DiFMUP substrate, IRS1 peptide activation); type: biochemical; conditions: 0.5 nM SHP-2, 500 nM IRS1 peptide, 75 μM DiFMUP; read-out: SHP2wt - IC50
T2 construct: synthetized by Origene, Met1-Leu525, cat #TP750155; purchased Origene TP750155
T2 sequence (Q06124 1-525): T1 sequence (Q06124 1-525)

[3] = tested on: phospho-ERK1/2 (Thr202/Tyr204) in KYSE-520 cells; assay: Phospho-ERK cellular assay (TR-FRET); type: cell-based; conditions: Homo sapiens, KYSE-520, 2 h, KYSE-520 cells, 2 h at 37° C.; read-out: pERK IC50
Outline: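 KYSE-520 cells plated overnight, then exposed to compound for 2 h at 37° C and lysed. Phospho-ERK1/2 (Thr202/Tyr204) detected by TR-FRET with Eu-cryptate and D2 antibodies after overnight incubation at rt. IC50 from four-parameter fit, normalised to DMSO (0%) and no-cell (100%) controls.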

Compound: Nc1nccc(Sc2cnc(N3CCC4(CC3)Cn3ncc(Cl)c3[C@H]4N)n3ccnc23)c1Cl [Example 18, (S)-1-(8-((2-amino-3-chloropyridin-4-yl)thio)imidazo[1,2-c]pyrimidin-5-yl)-3′-chloro-4′H,6′H-spiro[piperidine-4,5′-pyrrolo[1,2-b]pyrazol]-4′-amine]
- Residence time 1/koff SPR [1]: 37175 s
- koff [1]: 2.69e-05 s⁻¹
- IC50 [2]: ≤ 50 nM
- IC50 [3]: < 100 nM

Compound: Nc1nccc(Sc2cnc(N3CCC4(CC3)Cn3ncc(Cl)c3[C@H]4N)cn2)c1Cl [Example 7, (S)-1-(5-((2-amino-3-chloropyridin-4-yl)thio)pyrazin-2-yl)-3′-chloro-4′H,6′H-spiro[piperidine-4,5′-pyrrolo[1,2-b]pyrazol]-4′-amine]
- Residence time 1/koff SPR [1]: 3185 s
- koff [1]: 0.000314 s⁻¹
- IC50 [2]: ≤ 50 nM
- IC50 [3]: < 100 nM

Compound: Nc1nccc(Sc2cnc(N3CCC4(CC3)Cn3ncc(Br)c3[C@H]4N)cn2)c1Cl [Example 8, (S)-1-(5-((2-amino-3-chloropyridin-4-yl)thio)pyrazin-2-yl)-3′-bromo-4′H,6′H-spiro[piperidine-4,5′-pyrrolo[1,2-b]pyrazol]-4′-amine]
- Residence time 1/koff SPR [1]: 8621 s
- koff [1]: 0.000116 s⁻¹
- IC50 [2]: ≤ 50 nM
- IC50 [3]: < 100 nM

Compound: Nc1nccc(Sc2cnc(N3CCC4(CC3)Cn3nc5c(c3[C@H]4N)COC5)cn2)c1Cl [Example 27, (S)-1′-(5-((2-amino-3-chloropyridin-4-yl)thio)pyrazin-2-yl)-1,8-dihydro-3H,6H-spiro[furo[3,4-d]pyrrolo[1,2-b]pyrazole-7,4′-piperidin]-8-amine]
- Residence time 1/koff SPR [1]: 30303 s
- koff [1]: 3.3e-05 s⁻¹
- IC50 [2]: ≤ 50 nM
- IC50 [3]: < 100 nM

Compound: Nc1nccc(Sc2cnc(N3CCC4(CC3)Cn3nc5c(c3[C@H]4N)CCC5)c3cncn23)c1Cl [Example 21, (S)-1′-(5-((2-amino-3-chloropyridin-4-yl)thio)imidazo[1,5-a]pyrazin-8-yl)-1,2,3,8-tetrahydro-6H-spiro[cyclopenta[d]pyrrolo[1,2-b]pyrazole-7,4′-piperidin]-8-amine]
- Residence time 1/koff SPR [1]: 12903 s
- koff [1]: 7.75e-05 s⁻¹
- IC50 [2]: ≤ 50 nM
- IC50 [3]: < 100 nM

Compound: N[C@@H]1c2ccnn2CC12CCN(c1cnc(Sc3ccnc4c3OC[C@@H]3CCCN43)cn1)CC2 [Example 13, (S)-1-(5-(((S)-6a,7,8,9-tetrahydro-6H-pyrido[3,2-b]pyrrolo[1,2-d][1,4]oxazin-4-yl)thio)pyrazin-2-yl)-4′H,6′H-spiro[piperidine-4,5′-pyrrolo[1,2-b]pyrazol]-4′-amine]
- Residence time 1/koff SPR [1]: 3333 s
- koff [1]: 0.0003 s⁻¹
- IC50 [2]: ≤ 50 nM
- IC50 [3]: < 100 nM

Compound: Nc1nccc(Sc2cnc(N3CCC4(CC3)Cn3ncc(F)c3[C@H]4N)cn2)c1Cl [Example 9, (S)-1-(5-((2-amino-3-chloropyridin-4-yl)thio)pyrazin-2-yl)-3′-fluoro-4′H,6′H-spiro[piperidine-4,5′-pyrrolo[1,2-b]pyrazol]-4′-amine]
- Residence time 1/koff SPR [1]: 9615 s
- koff [1]: 0.000104 s⁻¹
- IC50 [2]: ≤ 50 nM
- IC50 [3]: < 100 nM

Compound: Cc1cc2n(n1)CC1(CCN(c3cnc(Sc4ccnc(N)c4Cl)cn3)CC1)[C@@H]2N [Example 11, (S)-1-(5-((2-amino-3-chloropyridin-4-yl)thio)pyrazin-2-yl)-2′-methyl-4′H,6′H-spiro[piperidine-4,5′-pyrrolo[1,2-b]pyrazol]-4′-amine]
- Residence time 1/koff SPR [1]: 29412 s
- koff [1]: 3.4e-05 s⁻¹
- IC50 [2]: ≤ 50 nM
- IC50 [3]: < 100 nM
